# Test results taken from patent US9012457B2, “2-carboxamide-4-piperazinyl-benzofuran derivative” (AstraZeneca AB, priority 2010, dated 2015).
# Columns and labels:
# [1] = target: T1, 5-HT1B receptor (Homo sapiens, UniProt P28222); assay: saturation binding studies, 5-HT1B receptor; conditions: read-out: Kd of radioligand (used in calculation of Ki values)
# Experimental: Frozen membrane preparations were thawed, homogenized with an Ultra-Turrax and mixed with SPA beads (YSI coated WGA, GE Healthcare/Amersham, Buckinghamshire, UK) in assay buffer containing 50 mM Tris-Base, 4 mM MgCl2, 4 mM CaCl2 (only 5-HT1B), 1 mM EDTA, and adjusted to pH 7.4 with HCl. The beads/membrane solution, final concentration 100 pM receptors for 5-HT1A, 300 pM receptors for 5-HT1B and 0.5 mg SPA beads/well, was pre-incubated in room temperature with stirring for 30-60 min. […] Five (log interval, 10 μM to 1 nM, final concentration) or ten serial dilutions (½-log interval, 0.1 μM to 0.0032 nM, final concentration) of compounds were prepared in DMSO from 10 mM stock solutions. The binding assays were performed in 384-well plates in a final volume of 90 μL/well with the following additions: 9 μL binding buffer; 1 μL compound/DMSO/nonspecific; 20 μL radioligand; and 60 μL beads/membrane mixture. Non-specific binding was defined by using 10 μM WAY100635 for 5-HT1A and 10 μM Methiothepin for 5-HT1B. The assay plates were incubated for 4 hours where after the plates are counted in a Wallac 1450 Microbeta Trilux counter (PerkinElmer LifeScience, US) or similar. Data from the experiments were analyzed using a four parameter logistic equation as follows: Y=Bottom+(Top−Bottom)/1+10^(Log EC50-X)nH.
# [2] = target: T2, 5-HT1A receptors (Homo sapiens, UniProt P08908); assay: 5-HT1A receptor competition binding assay (SPA, [3H]-8-OH-DPAT)
# T2 sequence (P08908 1-422): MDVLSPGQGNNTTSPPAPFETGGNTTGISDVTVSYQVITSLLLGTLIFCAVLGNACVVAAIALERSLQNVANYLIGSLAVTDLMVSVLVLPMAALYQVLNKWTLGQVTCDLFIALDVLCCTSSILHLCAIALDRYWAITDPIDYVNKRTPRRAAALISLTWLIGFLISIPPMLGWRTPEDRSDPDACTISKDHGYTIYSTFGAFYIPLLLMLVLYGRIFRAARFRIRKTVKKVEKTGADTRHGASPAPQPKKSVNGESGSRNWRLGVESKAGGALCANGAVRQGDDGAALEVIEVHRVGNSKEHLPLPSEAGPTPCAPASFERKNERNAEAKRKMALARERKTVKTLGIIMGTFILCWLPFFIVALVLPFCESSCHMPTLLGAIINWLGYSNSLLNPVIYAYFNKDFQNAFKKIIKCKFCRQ
# Experimental: (§1) These assays were be used with some modifications:
# (§2) For the binding assay stably transfected chinese hamster ovary (CHO) cell lines expressing 5-HT1A receptors or 5-HT1B receptors were harvested by centrifugation at 300×g for 10 min and resuspended in 10 mM Tris-HCl, 5 mM EDTA at pH 7.4. The cells were pooled, recentrifuged and resuspended before homogenisation using a Dounce homogeniser (“type B”). Cell membranes were centrifuged at 48 000×g for 10 min and then resuspended in harvesting buffer using an Ultra-Turrax T8 (IKA Labortechnik, Germany), aliquots were stored frozen in −70° C.
# (§3) Frozen membrane preparations were thawed, homogenized with an Ultra-Turrax and mixed with SPA beads (YSI coated WGA, GE Healthcare/Amersham, Buckinghamshire, UK) in assay buffer containing 50 mM Tris-Base, 4 mM MgCl2, 4 mM CaCl2 (only 5-HT1B), 1 mM EDTA, and adjusted to pH 7.4 with HCl. The beads/membrane solution, final concentration 100 pM receptors for 5-HT1A, 300 pM receptors for 5-HT1B and 0.5 mg SPA beads/well, was pre-incubated in room temperature with stirring for 30-60 min. […] The assay plates were incubated for 4 hours where after the plates are counted in a Wallac 1450 Microbeta Trilux counter (PerkinElmer LifeScience, US) or similar. Data from the experiments were analyzed using a four parameter logistic equation as follows: Y=Bottom+(Top−Bottom)/1+10^(Log EC50-X)nH.
# [3] = target: T1, 5-HT1B receptor; assay: 5-HT1B receptor competition binding assay (SPA, [3H]-GR125743)
# Experimental: as §1, §2, §3
# T1 sequence (P28222 whole entry): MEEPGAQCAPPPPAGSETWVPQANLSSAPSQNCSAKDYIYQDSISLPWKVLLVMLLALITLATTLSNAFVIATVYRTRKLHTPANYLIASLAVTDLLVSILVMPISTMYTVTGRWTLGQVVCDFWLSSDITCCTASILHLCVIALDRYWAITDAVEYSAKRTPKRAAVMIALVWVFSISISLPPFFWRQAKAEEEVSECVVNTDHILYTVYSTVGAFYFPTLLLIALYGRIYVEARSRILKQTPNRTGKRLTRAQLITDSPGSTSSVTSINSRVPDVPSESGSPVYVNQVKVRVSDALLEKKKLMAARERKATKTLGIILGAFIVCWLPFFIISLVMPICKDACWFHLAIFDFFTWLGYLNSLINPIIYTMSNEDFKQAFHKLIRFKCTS
smiles,measurement,setting,value
COc1ccc(NC(=O)c2ccc(-c3ccncc3)c(C)c2)cc1N1CCN(C)CC1 [[^3H]-GR125743],Kd,[1],0.87 nM
"CNC(=O)c1cc2c(N3CCN(CCc4cccc5c4CCC(=O)N5C)CC3)cccc2o1 [compound of formula (I), N-Methyl-4-[4-[2-(1-methyl-2-oxo-3,4-dihydroquinolin-5-yl)ethyl]piperazin-1-yl]benzofuran-2-carboxamide]",Ki,[2],0.07 nM
same,Ki,[3],0.65 nM
